Experimental data: patent US20080125408A1, “PENEM PRODRUG” (Pfizer Inc, priority 2006, published 2008)
Converted amounts (≈) assume the structure as drawn. Read-outs that look alike come from different tables or passages of the source.

Columns and labels:
[1] = Human Intestinal Juice (HIJ) stability studies; type: in vitro ADME; conditions: pooled HIJ from 4 subjects, buffered pH 7.4, 37° C., substrate 1-300 μM
Method: In the HIJ experiments, HIJ from 4 individual subjects (1 mL each) was pooled with 1 mL of 600 mM potassium phosphate buffer pH 7.4. Aliquots of 300 μL×6 of the buffered human intestinal juice were incubated at 37° C. following fortification of substrate at concentrations of 300, 100, 30, 10, 3, and 1 μM. Two prodrug compounds could be run at the same time. Samples of 35 μL were taken at 0, 0.5, 1, 2, 10, and 20 minutes and quenched with 70 μL of 80/20 acetonitrile/100 mM ammonium acetate pH 4.5 containing an internal standard (ampicillin, 5 μg/mL). Samples were centrifuged at 3000 g for 10 minutes and the supernatants transferred to injection vials. First order degradation of the prodrug was monitored by LC/MS/MS as described below. The percentage of prodrug remaining versus time at each concentration was fitted to a first order decay function to determine the substrate depletion rate constant or kdep. A linear-log plot of kdep versus concentration could be fitted with the following equation where: [formula] […] In Michaelis-Menton terms, intrinsic clearance CLint represents the ratio of Vmax/Km when [S] is well below the Km. Substrate units for these studies were reported in μM and intrinsic clearance (CIint) in mL/min.

[2] = Liver S9 stability and conversion efficiency to sulopenem; type: in vitro ADME, human; conditions: for half-life at 50 µM: human
Method: Oral bioavailability can be predicted variously by factors including one or more of (1) GI tract stability, (2) Caco-2 permeability, (3) efficiency of conversion to sulopenem, and (4) high solubility. Accordingly, the sulopenem prodrugs of the invention were evaluated, as detailed below, for stability in human intestinal juice (HIJ), efficiency of conversion to sulopenem in human liver homogenate, whole blood conversion and solubility as measured in phosphate buffer pH 5.0. Liver S9 was prepared fresh from liver chunks stored at −70° C. for each analysis completed. Approximately 5 g of frozen liver tissue was homogenized to uniformity in 15 mL of ice cold 100 mM potassium phosphate (pH 7.4) buffer. The homogenate was then centrifuged at 9000 g for 20 minutes at 5° C. to isolate the S9 supernatant fraction. Each incubation was run at a 1:10 dilution of the S9 supernatant in 100 mM potassium phosphate (pH 7.4) buffer. Reactions (1 mL) were initiated by the addition of substrate (50 μM final) at 37° C. Stability and conversion efficiency were assessed in 1 mL incubations with heparinized whole blood at 37° C. For both S9 homogenates and whole blood incubations, aliquots (75 μL) were obtained at 0, 0.5, 1, 2, 3, 5, 10, and 20 minutes and quenched in 150 μL of 80/20 acetonitrile/100 mM ammonium acetate pH 4.5 containing an internal standard (ampicillin, 5 μg/mL). Samples were centrifuged at 3000 g for 10 minutes and the supernatants transferred to injection vials. First order degradation of the prodrug was monitored by LC/MS/MS as described below. Conversion to sulopenem was expressed as a percentage of the molar equivalent (50 μM) in a fortified sample. The results of the S9 and whole blood stability and conversion studies are shown in Table 2, where single values represent an average of two duplicate determinations.

[3] = Equilibrium solubility in phosphate buffer pH 5
Caco-2 cells = test: Caco-2 permeability studies (A→B assay)
[4] = Whole blood conversion efficiency to sulopenem; type: in vitro ADME; conditions: heparinized whole blood, 37° C.
Method: Stability and conversion efficiency were assessed in 1 mL incubations with heparinized whole blood at 37° C. For both S9 homogenates and whole blood incubations, aliquots (75 μL) were obtained at 0, 0.5, 1, 2, 3, 5, 10, and 20 minutes and quenched in 150 μL of 80/20 acetonitrile/100 mM ammonium acetate pH 4.5 containing an internal standard (ampicillin, 5 μg/mL). Samples were centrifuged at 3000 g for 10 minutes and the supernatants transferred to injection vials. First order degradation of the prodrug was monitored by LC/MS/MS as described below. Conversion to sulopenem was expressed as a percentage of the molar equivalent (50 μM) in a fortified sample. The results of the S9 and whole blood stability and conversion studies are shown in Table 2, where single values represent an average of two duplicate determinations.

[5] = humans, about 500 mg equivalent dose; cited from earlier work
Escherichia coli = test: MIC90 of sulopenem (in vitro activity); type: cell-based
[6] = system: Streptococcus agalactiae (Group B); test: MIC90 of sulopenem (in vitro activity); type: cell-based
Method: (§1) The in vitro activity of sulopenem (B9) (the parent acid) based on minimum inhibitory concentration (MIC) was evaluated against pathogens involved in […] community and hospital infections, as summarized in Table 1.

Prevotella spp = test: MIC90 of sulopenem (in vitro activity); type: cell-based
Method: as §1

Listeria monocytogenes = test: MIC90 of sulopenem (in vitro activity); type: cell-based
Method: as §1

[7] = system: Staphylococcus aureus oxacillin-S; test: MIC90 of sulopenem (in vitro activity); type: cell-based
Method: as §1

Klebsiella pneumoniae = test: MIC90 of sulopenem (in vitro activity); type: cell-based
Method: as §1

Salmonella/Shigella = test: MIC90 of sulopenem (in vitro activity); type: cell-based
Method: as §1

Klebsiella oxytoca = test: MIC90 of sulopenem (in vitro activity); type: cell-based
Method: as §1

[8] = system: Streptococcus bovis (Group D); test: MIC90 of sulopenem (in vitro activity); type: cell-based; conditions: Streptococcus equinus
Clostridium perfringens = test: microbe, parasite or virus in culture; type: cell-based
[9] = system: Staphylococcus saprophyticus; test: MIC90 of sulopenem (in vitro activity); type: cell-based
[10] = system: Corynebacterium spp (not C. jeikeium); test: MIC90 of sulopenem (in vitro activity); type: cell-based
[11] = system: Moraxella catarrhalis β-lactamase−; test: MIC90 of sulopenem (in vitro activity); type: cell-based
Enterobacter cloacae = test: MIC90 of sulopenem (in vitro activity); type: cell-based
Citrobacter diversus = test: MIC90 of sulopenem (in vitro activity); type: cell-based; conditions: Citrobacter koseri
[12] = system: Streptococcus pyogenes (Group A); test: MIC90 of sulopenem (in vitro activity); type: cell-based
[13] = in vivo; cited from earlier work
[14] = system: Moraxella catarrhalis β-lactamase+; test: MIC90 of sulopenem (in vitro activity); type: cell-based
Enterobacter aerogenes = test: MIC90 of sulopenem (in vitro activity); type: cell-based; conditions: Klebsiella aerogenes
Proteus mirabilis = test: MIC90 of sulopenem (in vitro activity); type: cell-based
[15] = system: Haemophilus influenzae β-lactamase+; test: MIC90 of sulopenem (in vitro activity); type: cell-based
[16] = system: Klebsiella pneumoniae ESBL+; test: MIC90 of sulopenem (in vitro activity); type: cell-based
Citrobacter freundii = test: MIC90 of sulopenem (in vitro activity); type: cell-based
[17] = system: Haemophilus influenzae β-lactamase−; test: MIC90 of sulopenem (in vitro activity); type: cell-based
[18] = system: Viridans Streptococcus group; test: MIC90 of sulopenem (in vitro activity); type: cell-based
[19] = system: Pseudomonas aeruginosa, Acinetobacter spp., Stenotrophomonas maltophilia, multi-resistant enterococci and methicillin-resistant staphylococci; test: Antibacterial spectrum: pathogens against which there is no activity; type: cell-based
[20] = system: Streptococcus pneumoniae levofloxacin-resistant; test: MIC90 of sulopenem (in vitro activity); type: cell-based
Neisseria meningitides = test: MIC90 of sulopenem (in vitro activity); type: cell-based
[21] = system: Streptococcus pneumoniae penicillin-susceptible; test: MIC90 of sulopenem (in vitro activity); type: cell-based
Morganella morganii = test: MIC90 of sulopenem (in vitro activity); type: cell-based
[22] = system: Streptococcus pneumonia penicillin-intermediate; test: MIC90 of sulopenem (in vitro activity); type: cell-based; conditions: Streptococcus pneumoniae
Alloiococcus otitidis = test: MIC90 of sulopenem (in vitro activity); type: cell-based; conditions: Alloiococcus otitis
[23] = system: Streptococcus pneumoniae penicillin-resistant; test: MIC90 of sulopenem (in vitro activity); type: cell-based
Legionella pneumophila = test: microbe, parasite or virus in culture; type: cell-based
Bacteroides fragilis = test: MIC90 of sulopenem (in vitro activity); type: cell-based
[24] = human, pooled human intestinal juice (HIJ)
[25] = prodrug degradation, liver S9 1:10, 50 μM, pH 7.4, 37° C.
[26] = phosphate buffer, pH 5, aqueous buffer, thermodynamic from solid

## CCc1oc(=O)oc1COC(=O)C1=C(S[C@H]2CC[S@@+]([O-])C2)S[C@@H]2[C@@H]([C@@H](C)O)C(=O)N12 [Compound 1, (5-ethyl-2-oxo-1,3-dioxol-4-yl)methyl (5R,6S)-6-[(1R)-1-hydroxyethyl]-7-oxo-3-[[(1R,3S)-tetrahydro-1-oxido-3-thienyl]thio]-4-thia-1-azabicyclo[3.2.0]hept-2-ene-2-carboxylate]
[1]; [24]
  Km: 120 µM
[1]
  HIJ CLint: 0.14 mL/min
[2]; [25]
  half-life at 50 µM: 3.11 min
[3]; [26]
  solubility: 1.2 mg/mL (≈ 2520 µM)

## CCCc1oc(=O)oc1COC(=O)C1=C(S[C@H]2CC[S@@+]([O-])C2)S[C@@H]2[C@@H]([C@@H](C)O)C(=O)N12 [Compound 2, (5-propyl-2-oxo-1,3-dioxol-4-yl)methyl (5R,6S)-6-[(1R)-1-hydroxyethyl]-7-oxo-3-[[(1R,3S)-tetrahydro-1-oxido-3-thienyl]thio]-4-thia-1-azabicyclo[3.2.0]hept-2-ene-2-carboxylate]
[1]; [24]
  Km: 22 µM
[1]
  HIJ CLint: 0.16 mL/min
[2]; [25]
  half-life at 50 µM: 3.62 min
[3]; [26]
  solubility: 0.507 mg/mL (≈ 1040 µM)

## CCCCc1oc(=O)oc1COC(=O)C1=C(S[C@H]2CC[S@@+]([O-])C2)S[C@@H]2[C@@H]([C@@H](C)O)C(=O)N12 [Compound 3, (5-(3-methylpropyl)-2-oxo-1,3-dioxol-4-yl)methyl (5R,6S)-6-[(1R)-1-hydroxyethyl]-7-oxo-3-[[(1R,3S)-tetrahydro-1-oxido-3-thienyl]thio]-4-thia-1-azabicyclo[3.2.0]hept-2-ene-2-carboxylate]
[1]
  HIJ CLint: 0.16 mL/min
  Km: 41 µM
[2]; conversion to sulopenem, % of molar equivalent (50 μM), liver S9 1:10, pH 7.4, 37° C.
  S9 Conv: 67%
[2]; [25]
  S9 Half-life: 6.09 min
[3]; equilibrium, 25 mM phosphate buffer (pH 5), ambient temperature, up to 48 hours
  solubility: 0.809 mg/mL (≈ 1610 µM)
Caco-2 cells; Papp A→B, 100 μM prodrug, apical pH 6.5 / basolateral pH 7.4
  Caco-2 Permeability: 50.2 nm/s
Caco-2 cells; relative to comparative compound C1
  increase in Caco-2 permeability compared to C1: ~10 fold
[4]
  Whole Blood Conv: 84%

## Cc1oc(=O)oc1COC(=O)C1=C(S[C@H]2CC[S@@+]([O-])C2)S[C@@H]2[C@@H]([C@@H](C)O)C(=O)N12 [Compound C1, (5-Methyl-2-oxo-1,3-dioxol-4-yl)methyl (5R,6S)-6-[(1R)-1-hydroxyethyl]-7-oxo-3-[[(1R,3S)-tetrahydro-1-oxido-3-thienyl]thio]-4-thia-1-azabicyclo[3.2.0]hept-2-ene-2-carboxylate]
[1]; [24]
  Km: 172 µM
[1]
  HIJ CLint: 0.13 mL/min
[2]; [25]
  half-life at 50 µM: 2.1 min
[3]; [26]
  solubility: 0.453 mg/mL (≈ 981 µM)

## CC(O)C1C(=O)N2C(C(=O)OCOC(=O)C(C)(C)C)=C(SC3CC[S+]([O-])C3)SC12 (centres unmarked) [POM ester]
[5]
  oral bioavailability: less than optimal oral bioavailability

## C[C@@H](O)[C@H]1C(=O)N2C(C(=O)O)=C(S[C@H]3CC[S@@+]([O-])C3)S[C@H]12 [Sulopenem, (5R,6S)-6-[(1R)-1-hydroxyethyl]-7-oxo-3-[(1R,3S)-tetrahydro-1-oxido-3-thienylthio]-4-thia-1-azabicyclo[3.2.0]hept-2-ene-2-carboxylic acid]
Escherichia coli
  MIC90: 0.06 mg/L (≈ 0.172 µM)
[6]
  MIC90: 0.125 mg/L (≈ 0.358 µM)
Prevotella spp
  MIC90: 0.125 mg/L (≈ 0.358 µM)
Listeria monocytogenes
  MIC90: 0.125 mg/L (≈ 0.358 µM)
[7]
  MIC90: 0.125 mg/L (≈ 0.358 µM)
Klebsiella pneumoniae
  MIC90: 0.125 mg/L (≈ 0.358 µM)
Salmonella/Shigella
  MIC90: 0.125 mg/L (≈ 0.358 µM)
Klebsiella oxytoca
  MIC90: 0.125 mg/L (≈ 0.358 µM)
[8]
  MIC90: 0.06 mg/L (≈ 0.172 µM)
Clostridium perfringens
  MIC90: 0.06 mg/L (≈ 0.172 µM)
[9]
  MIC90: 0.5 mg/L (≈ 1.43 µM)
[10]
  MIC90: 2 mg/L (≈ 5.72 µM)
[11]
  MIC90: 0.03 mg/L (≈ 0.0858 µM)
Enterobacter cloacae
  MIC90: 1 mg/L (≈ 2.86 µM)
Citrobacter diversus
  MIC90: 0.06 mg/L (≈ 0.172 µM)
[12]
  MIC90: 0.03 mg/L (≈ 0.0858 µM)
[13]
  oral bioavailability: not appreciably orally bioavailable
[14]
  MIC90: 0.125 mg/L (≈ 0.358 µM)
Enterobacter aerogenes
  MIC90: 0.5 mg/L (≈ 1.43 µM)
Proteus mirabilis
  MIC90: 0.5 mg/L (≈ 1.43 µM)
[15]
  MIC90: 0.5 mg/L (≈ 1.43 µM)
[16]
  MIC90: 0.25 mg/L (≈ 0.715 µM)
Citrobacter freundii
  MIC90: 0.25 mg/L (≈ 0.715 µM)
[17]
  MIC90: 0.25 mg/L (≈ 0.715 µM)
[18]
  MIC90: 0.25 mg/L (≈ 0.715 µM)
[19]
  antibacterial activity: not active
[20]
  MIC90: 0.5 mg/L (≈ 1.43 µM)
Neisseria meningitides
  MIC90: 0.06 mg/L (≈ 0.172 µM)
[21]
  MIC90: 0.03 mg/L (≈ 0.0858 µM)
Morganella morganii
  MIC90: 2 mg/L (≈ 5.72 µM)
[22]
  MIC90: 0.25 mg/L (≈ 0.715 µM)
Alloiococcus otitidis
  MIC90: 1 mg/L (≈ 2.86 µM)
[23]
  MIC90: 1 mg/L (≈ 2.86 µM)
Legionella pneumophila
  MIC90: 0.06 mg/L (≈ 0.172 µM)
Bacteroides fragilis
  MIC90: 0.5 mg/L (≈ 1.43 µM)
